Drawing on ChEMBL document CHEMBL4420066, “Aryl amine substituted quinoxaline used as anticancer drugs” (2017), this text covers MEC and Activity for 21 molecules.

Calls of active or inactive are those of the source. No cut-off for these calls is given here.

The species named for experiment [1] is Homo sapiens. Kind of experiment: Activation of PP2A in human SKHEP1 cells assessed as minimal concentration causing increase in protein phosphatase activity incubated for 24 hrs using phosphopeptide substrate incubated for 10 mins by malachite green-phosphate complex assay. Format: cell-based.
For experiment [2], the species on record is Homo sapiens. Kind of experiment: Activation of PP2A in human PLC5 cells assessed as minimal concentration causing increase in protein phosphatase activity incubated for 24 hrs using phosphopeptide substrate incubated for 10 mins by malachite green-phosphate complex assay. It counts as cell-based.
The species named for experiment [3] is Homo sapiens. Put plainly: Inhibition of His-tagged recombinant human SET1 protein (1 to 290 amino acids) expressed in Escherichia coli interaction with N-terminal GST-tagged recombinant human PP2A-C (1 to 309 amino acids) assessed as minimal concentration causing disruption of SET-PP2Ac binding by SPR assay.
The species named for experiment [4] is Homo sapiens. Kind of experiment: Activation of PP2A in human Hep3B cells assessed as minimal concentration causing increase in protein phosphatase activity incubated for 24 hrs using phosphopeptide substrate incubated for 10 mins by malachite green-phosphate complex assay. Format: cell-based.
The species entered for experiment [5] is Homo sapiens. Kind of experiment: Activation of PP2A in human HA22T cells assessed as minimal concentration causing increase in protein phosphatase activity incubated for 24 hrs using phosphopeptide substrate incubated for 10 mins by malachite green-phosphate complex assay. It counts as cell-based.
For experiment [6], the system named is Homo sapiens. Put plainly: Antitumor activity against human PLC5 cells xenografted in mouse assessed as reduction in tumor size at 10 mg/kg dosed for 4 weeks. Format: functional, organism-based.
The species named for experiment [7] is Homo sapiens. Kind of experiment: Cytotoxicity against human PLC5 cells assessed as reduction in cell viability at 0.5 to 4 uM incubated for 48 hrs by MTT assay. Format: functional, cell-based.
The test system of experiment [8] is SK-HEP1. Kind of experiment: Cytotoxicity against human SKHEP1 cells assessed as reduction in cell viability incubated for 48 hrs by MTT assay. It counts as functional, cell-based. For orientation: Tetrazolium assays rely on reduction of a dye to a coloured formazan, in cell work by metabolically active cells.
Experiment [9] concerns HA22T cell line. Put plainly: Induction of apoptosis in human HA22T cells assessed as accumulation at subG1 phase at 0.5 to 4 uM by flow cytometry. It counts as functional, cell-based. Background: A flow cytometer gives signals particle by particle.
For experiment [10], the system named is HA22T cell line. Put plainly: Cytotoxicity against human HA22T cells assessed as reduction in cell viability incubated for 48 hrs by MTT assay. Format: functional, cell-based.
The species named for experiment [11] is Homo sapiens. Kind of experiment: Induction of apoptosis in human PLC5 cells assessed as accumulation at subG1 phase at 0.5 to 4 uM by flow cytometry. Format: functional, cell-based.
The subject of experiment [12] is SK-HEP1. Kind of experiment: Induction of apoptosis in human SKHEP1 cells assessed as accumulation at subG1 phase at 0.5 to 4 uM by flow cytometry. It counts as functional, cell-based.
Experiment [13] deals with Hep 3B2. Kind of experiment: Induction of apoptosis in human Hep3B cells assessed as accumulation at subG1 phase at 0.5 to 4 uM by flow cytometry. Format: functional, cell-based.
Experiment [14] is filed under the species Homo sapiens. Put plainly: Cytotoxicity against human PLC5 cells assessed as reduction in cell viability incubated for 48 hrs by MTT assay. Format: functional, cell-based.
For experiment [15], the system named is Hep 3B2. Kind of experiment: Cytotoxicity against human Hep3B cells assessed as reduction in cell viability incubated for 48 hrs by MTT assay. It counts as functional, cell-based.

Regarding `C#Cc1cccc(Nc2nc3cc([N+](=O)[O-])ccc3nc2Nc2ccc(OC)cc2)c1`, the MEC in the experiment listed under Homo sapiens [1], in the experiment filed under Homo sapiens [2], in the experiment filed under Homo sapiens [3], in the experiment listed under Homo sapiens [4] and in the experiment filed under Homo sapiens [5] was 100 to 200 nM throughout.
`O=[N+]([O-])c1cccc(Nc2nc3ccccc3nc2Cl)c1`: the MEC in the experiment listed under Homo sapiens [1], in the experiment filed under Homo sapiens [2], in the experiment listed under Homo sapiens [3], in the experiment filed under Homo sapiens [4] and in the experiment filed under Homo sapiens [5] was greater than 200 nM in each case.
`O=[N+]([O-])c1ccc2nc(Nc3cccc(C(F)(F)F)c3)c(Nc3cccc(C(F)(F)F)c3)nc2c1`: the MEC in the experiment listed under Homo sapiens [1], in the experiment filed under Homo sapiens [2], in the experiment listed under Homo sapiens [3], in the experiment filed under Homo sapiens [4] and in the experiment filed under Homo sapiens [5] was greater than 200 nM throughout.
Turning to `FC(F)(F)c1cc(Nc2nc3ccccc3nc2Cl)cc(C(F)(F)F)c1`, the MEC in the experiment filed under Homo sapiens [1], in the experiment listed under Homo sapiens [2], in the experiment filed under Homo sapiens [3], in the experiment listed under Homo sapiens [4] and in the experiment filed under Homo sapiens [5] was greater than 200 nM throughout.
Consider `Clc1cccc(Nc2nc3ccccc3nc2Cl)c1`, for which the MEC in the experiment filed under Homo sapiens [1], in the experiment filed under Homo sapiens [2], in the experiment listed under Homo sapiens [3], in the experiment filed under Homo sapiens [4] and in the experiment listed under Homo sapiens [5] was greater than 200 nM in each case.
`COc1cccc(Nc2nc3ccc([N+](=O)[O-])cc3nc2Nc2cccc(OC)c2)c1`: the MEC in the experiment filed under Homo sapiens [1], in the experiment filed under Homo sapiens [2], in the experiment filed under Homo sapiens [3], in the experiment listed under Homo sapiens [4] and in the experiment listed under Homo sapiens [5] was greater than 200 nM each time.
As for `Clc1nc2ccccc2nc1NCc1ccccc1`, the MEC in the experiment filed under Homo sapiens [1], in the experiment filed under Homo sapiens [2], in the experiment listed under Homo sapiens [3], in the experiment listed under Homo sapiens [4] and in the experiment listed under Homo sapiens [5] was greater than 200 nM in each case.
With `FS(F)(F)(F)(F)c1ccc(Nc2nc3ccccc3nc2Cl)cc1`, the MEC in the experiment filed under Homo sapiens [1], in the experiment listed under Homo sapiens [2], in the experiment listed under Homo sapiens [3], in the experiment filed under Homo sapiens [4] and in the experiment filed under Homo sapiens [5] was greater than 200 nM in each case.
Regarding `Oc1ccc(Nc2nc3ccccc3nc2Nc2ccc(O)cc2)cc1`, the MEC in the experiment filed under Homo sapiens [1] is 100 to 200 nM; in the experiment filed under Homo sapiens [2], 100 to 200 nM; in the experiment filed under Homo sapiens [3], less than 100 nM; in the experiment filed under Homo sapiens [4], 100 to 200 nM; in the experiment filed under Homo sapiens [5], 100 to 200 nM.
For `FC(F)(F)c1cc(Nc2nc3ccccc3nc2Nc2ccc(Cl)c(C(F)(F)F)c2)ccc1Cl`, the MEC in the experiment listed under Homo sapiens [1] was 100 to 200 nM; in the experiment filed under Homo sapiens [2], 100 to 200 nM; in the experiment filed under Homo sapiens [3], less than 100 nM; in the experiment listed under Homo sapiens [4], 100 to 200 nM; in the experiment filed under Homo sapiens [5], 100 to 200 nM.
For the molecule `FS(F)(F)(F)(F)c1ccc(Nc2nc3ccccc3nc2Nc2ccc(S(F)(F)(F)(F)F)cc2)cc1`, the MEC in the experiment listed under Homo sapiens [1] is less than 50 nM; in the experiment filed under Homo sapiens [2], less than 50 nM; in the experiment filed under Homo sapiens [3] it was 50 nM; in the experiment listed under Homo sapiens [4] it was less than 50 nM; in the experiment listed under Homo sapiens [5], less than 50 nM.
As to `Clc1cc(Cl)cc(Nc2nc3ccccc3nc2Cl)c1`, the MEC is greater than 200 nM in the experiment filed under Homo sapiens [1]; greater than 200 nM in the experiment filed under Homo sapiens [2]; 100 to 200 nM in the experiment listed under Homo sapiens [3]; greater than 200 nM in the experiment filed under Homo sapiens [4]; greater than 200 nM in the experiment listed under Homo sapiens [5].
As to `FC(F)(F)Oc1ccc(Nc2nc3ccccc3nc2Nc2ccc(OC(F)(F)F)cc2)cc1`, the MEC was 50 to 100 nM in the experiment listed under Homo sapiens [1]; 50 to 100 nM in the experiment filed under Homo sapiens [2]; less than 100 nM in the experiment listed under Homo sapiens [3]; 50 to 100 nM in the experiment filed under Homo sapiens [4]; 50 to 100 nM in the experiment listed under Homo sapiens [5].
For `O=[N+]([O-])c1ccc2nc(Nc3cccc(Br)c3)c(Nc3cccc(Br)c3)nc2c1`, the MEC in the experiment filed under Homo sapiens [1], in the experiment listed under Homo sapiens [2], in the experiment filed under Homo sapiens [3], in the experiment listed under Homo sapiens [4] and in the experiment listed under Homo sapiens [5] was greater than 200 nM throughout.
Take `Nc1ccc2nc(Nc3ccc(C(F)(F)F)cc3)c(Nc3ccc(C(F)(F)F)cc3)nc2c1`: the MEC in the experiment filed under Homo sapiens [1], in the experiment filed under Homo sapiens [2], in the experiment listed under Homo sapiens [3], in the experiment listed under Homo sapiens [4] and in the experiment filed under Homo sapiens [5] was greater than 200 nM each time.
As to `C#Cc1cccc(Nc2nc3ccc([N+](=O)[O-])cc3nc2Nc2cccc(C#C)c2)c1`, the MEC in the experiment listed under Homo sapiens [1] was less than 50 nM; in the experiment listed under Homo sapiens [2], less than 50 nM; in the experiment filed under Homo sapiens [3], 50 to 100 nM; in the experiment listed under Homo sapiens [4] it was less than 50 nM; in the experiment listed under Homo sapiens [5] it was less than 50 nM.
Turning to `FC(F)(F)Oc1ccc(Nc2nc3ccccc3nc2Cl)cc1`, the MEC in the experiment filed under Homo sapiens [1], in the experiment filed under Homo sapiens [2], in the experiment filed under Homo sapiens [3], in the experiment listed under Homo sapiens [4] and in the experiment filed under Homo sapiens [5] was greater than 200 nM in each case.
In the case of `COc1ccc(Nc2nc3ccc([N+](=O)[O-])cc3nc2Nc2cccc(O)c2)cc1`, the MEC in the experiment filed under Homo sapiens [1], in the experiment listed under Homo sapiens [2], in the experiment listed under Homo sapiens [4] and in the experiment filed under Homo sapiens [5] was less than 100 nM each time.
`CNC(=O)c1cc(Oc2ccc(NC(=O)Nc3ccc(Cl)c(C(F)(F)F)c3)cc2)ccn1`: the result with Homo sapiens [6] and in the experiment listed under Homo sapiens [7] was Active.
Regarding `C#Cc1cccc(Nc2ncnc3cc(OCCOC)c(OCCOC)cc23)c1`, the outcome in the experiment on SK-HEP1 [8], in the experiment on HA22T cell line [9], in the experiment with HA22T cell line [10], in the experiment listed under Homo sapiens [11], in the experiment on SK-HEP1 [12] and with Hep 3B2 [13] was Active. The outcome in the experiment listed under Homo sapiens [14] and in the experiment on Hep 3B2 [15] was Active.
On to `Clc1nc2ccccc2nc1Nc1ccccc1`, for which the MEC in the experiment listed under Homo sapiens [1], in the experiment filed under Homo sapiens [2], in the experiment filed under Homo sapiens [3], in the experiment listed under Homo sapiens [4] and in the experiment listed under Homo sapiens [5] was greater than 200 nM throughout.
